# Reference: patent US20250177396A1, “POLO-LIKE KINASE 4 (PLK4) INHIBITORS, PHARMACEUTICAL COMPOSITIONS, METHODS OF PREPARATION AND USES THEREOF” (Repare Therapeutics Inc., priority 2022, published 2025)
# Biological target: T1, PLK4 (Homo sapiens, UniProt O00444)
# T1 construct: expressed in transfected cells; host or cells: HEK293 T cells (ATCC CRL-3216)
# T1 sequence (O00444 1-970): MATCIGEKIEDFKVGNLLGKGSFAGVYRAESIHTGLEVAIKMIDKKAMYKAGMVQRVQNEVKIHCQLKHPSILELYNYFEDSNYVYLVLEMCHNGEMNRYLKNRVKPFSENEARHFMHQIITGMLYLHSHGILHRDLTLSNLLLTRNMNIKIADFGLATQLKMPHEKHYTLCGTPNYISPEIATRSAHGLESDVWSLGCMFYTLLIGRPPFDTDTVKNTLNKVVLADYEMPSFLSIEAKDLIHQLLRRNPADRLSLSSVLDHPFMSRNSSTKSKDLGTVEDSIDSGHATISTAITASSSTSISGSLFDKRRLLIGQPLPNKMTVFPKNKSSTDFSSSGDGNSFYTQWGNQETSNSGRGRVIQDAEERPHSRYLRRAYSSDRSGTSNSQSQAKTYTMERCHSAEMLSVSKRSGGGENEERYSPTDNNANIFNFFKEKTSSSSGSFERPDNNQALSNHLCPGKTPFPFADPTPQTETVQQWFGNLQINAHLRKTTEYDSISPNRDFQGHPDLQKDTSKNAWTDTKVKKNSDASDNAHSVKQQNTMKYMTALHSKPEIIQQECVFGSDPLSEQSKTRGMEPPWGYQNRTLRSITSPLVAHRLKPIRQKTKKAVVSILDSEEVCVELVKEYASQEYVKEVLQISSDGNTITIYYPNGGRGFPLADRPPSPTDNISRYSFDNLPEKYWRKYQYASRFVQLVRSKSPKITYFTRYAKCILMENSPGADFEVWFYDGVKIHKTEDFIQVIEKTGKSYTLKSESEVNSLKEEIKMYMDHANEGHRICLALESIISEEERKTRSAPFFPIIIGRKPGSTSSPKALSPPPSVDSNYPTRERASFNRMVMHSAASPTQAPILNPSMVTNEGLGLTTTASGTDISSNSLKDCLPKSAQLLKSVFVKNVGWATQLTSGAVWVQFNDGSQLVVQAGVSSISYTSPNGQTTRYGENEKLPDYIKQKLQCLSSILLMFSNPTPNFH
# Test: PLK4 NanoBRET target engagement assay
# Format: binding
# Conditions: HEK293 T cells transfected with PLK4 NanoLuc fusion vector; K-5 tracer; 2 hrs incubation
# Description: To determine the affinity of Compounds described herein in the PLK4 NanoBRET target engagement assay, HEK293 T cells (ATCC Product Number CRL-3216) are first transfected with the PLK4 NanoLuc fusion vector DNA and Transfection carrier DNA using the Fugene HD Transfection reagent in Opti-MEM No Phenol Red buffer. After an overnight incubation in a 37° C./5% CO2 incubator, the transfected HEK293 T cells are trypsinized, counted, and resuspended in Opti-MEM No Phenol Red buffer at a concentration of 200000 cells/mL. White 96-well plates are then plated with 85 μL of cells (17000 cells/well) to which 5 μL of the 20×K-5 tracer solution diluted in tracer dilution buffer is added. Finally, 10 μL of the 10× compounds are added and the plates and then incubated in a 37° C./5% CO2 incubator for 2 hrs. After the incubation, a 50 uL 3× solution of the substrate/inhibitor mix is added to the cells. The plate is then transferred in the Envision plate reader where the Acceptor emission (610 nm) and the Donor emission (450 nm) are measured.
# The IC50 of compounds is determined as follows: • 1. The ratio between the Acceptor emission (610 nm)/Donor emission (450 nm) is calculated. • 2. This ratio is then multiplied by 1000 to obtain the mBRET units (multiplying by 1000 is an arbitrary step that simply makes the data easier to interpret; it has no impact on the data set itself) • 3. The mBRET units are then used in Scigilian Analyze software (https://analyze.scigilian.io) to determine the IC50 value using a 4-parameter fit analysis.
row,IC50 [nM],Compound
1,320,COc1c(Nc2cc(C)[nH]n2)nc(N(C)c2ccc(S(=O)(=O)CC(C)C)cc2)nc1-c1cnn(C)c1 [Compound 55]
2,130,Cc1cc(Nc2nc(N(C)c3ccc(S(C)(=O)=O)cc3C)nc(-c3cnn(C)c3)c2C2CC2)n[nH]1 [Compound 56]
3,14,CN(c1nc(Nc2cc(C3CC3)[nH]n2)c(C2CC2)c(-c2ccnn2C2CC2)n1)c1c(F)cc(S(C)(=O)=O)cc1F [Compound 331]
4,59,COc1c(Nc2cc(C)[nH]n2)nc(N(C)c2ccc(Cn3ccnc3)cc2F)nc1-c1cnn(C)c1 [Compound 64]
5,8,Cc1cc(Nc2nc(N(C)c3cc(F)c(S(C)(=O)=O)cc3F)nc(-c3cn(C(C)C)cn3)c2C2CC2)n[nH]1 [Compound 200]
6,14,Cc1cc(Nc2nc(N(C)c3c(F)cc(S(C)(=O)=O)cc3F)nc(-c3cn(C)c(C(=O)N(C)C)n3)c2C2CC2)n[nH]1 [Compound 293]
7,> 5000,Cc1cc(Nc2nc(N(C)c3c(F)cc(S(C)(=O)=O)cc3Cl)nc(-c3cnn(C)c3)c2C2CC2)n[nH]1 [Compound 118]
8,2000,COc1c(Nc2cc(C)[nH]n2)nc(N(C)c2ccc(S(C)(=O)=O)cc2F)c(C#N)c1-c1cnn(C)c1 [Compound 98]
9,54,COc1c(Nc2cc(C)[nH]n2)nc(N(C)c2ccc(S(C)(=O)=O)c(F)c2F)nc1-c1cnn(C)c1 [Compound 49]
10,310,Cc1cc(Nc2nc(N(C)c3c(F)cc(S(C)(=O)=O)cc3F)nc(-c3cn(C)nc3C(N)=O)c2C2CC2)n[nH]1 [Compound 251]
11,62,Cc1cc(Nc2nc(N(C)c3c(F)cc(Cl)cc3F)nc(-c3cn(C)cn3)c2C2CC2)n[nH]1 [Compound 337]
12,8,[2H]C([2H])([2H])n1ncc(-c2nc(N(C)c3c(F)cc(S(C)(=O)=O)cc3F)nc(Nc3cc(C)[nH]n3)c2C2CC2)c1C [Compound 153]
13,910,COc1c(Nc2cc(C)[nH]n2)nc(N(C)c2ccc(-c3nccs3)cc2)nc1-c1cnn(C)c1 [Compound 80]
14,12,Cc1cc(Nc2nc(N(C)c3c(F)cc(S(C)(=O)=O)cc3F)nc(-c3cn(C)c(C4(O)CCC4)n3)c2C2CC2)n[nH]1 [Compound 322]
15,10,Cc1cc(Nc2nc(N(C)c3c(F)cc(S(C)(=O)=O)cc3F)nc(-c3cn(C)c(C(C)(C)O)n3)c2C2CC2)n[nH]1 [Compound 323]

# Further lines, the compound ahead of its results:
row,Compound,IC50 [nM]
1,"COc1c(Nc2cc(C)[nH]n2)nc(N2CCc3cc(S(C)(=O)=O)ccc32)nc1-c1cnn(C)c1 [Compound 5, 5-methoxy-N-(5-methyl-1H-pyrazol-3-yl)-6-(1-methyl-1H-pyrazol-4-yl)-2-(5-(methylsulfonyl)indolin-1-yl)pyrimidin-4-amine]",1100
2,Cc1cc(Nc2nc(N(C)c3c(F)cc(S(C)(=O)=O)c(Cl)c3F)nc(-c3cnn(C)c3)c2C2CC2)n[nH]1 [Compound 120],19
3,COc1c(Nc2cc(C)[nH]n2)nc(Sc2ccc(S(C)(=O)=O)cc2F)c(N(C)C)c1-c1cnn(C)c1 [Compound 97],1200
4,COc1c(Nc2cc(C)[nH]n2)nc(N(C)c2ccc(-c3ccnn3C)cc2)nc1-c1cnn(C)c1 [Compound 59],280
5,Cc1cc(Nc2nc(N(C)c3c(F)cc(C4(C#N)CC4)cc3F)nc(-c3cn(C)cn3)c2C2CC2)n[nH]1 [Compound 362],4
6,Cc1cc(Nc2nc(N(C)c3c(F)cc(S(C)(=O)=O)cc3F)nc(-c3cn(C4CC(O)C4)nc3C)c2C2CC2)n[nH]1 (stereo not drawn) [Compound 365],4
7,Cc1cc(Nc2nc(N(C)c3c(F)cc(S(C)(=O)=O)cc3F)nc(-c3cnn(CC(C)(C)O)c3)c2C2CC2)n[nH]1 [Compound 213],6
8,Cc1cc(Nc2nc(N(C)c3c(F)cc(B(O)O)cc3F)nc(-c3cn(C)cn3)c2C2CC2)n[nH]1 [Compound 351],52
9,"COc1c(Nc2cc(C)[nH]n2)nc(Nc2ccc(S(C)(=O)=O)cc2F)nc1-c1cnn(C)c1 [Compound 1, N^2-(2-fluoro-4-(methylsulfonyl)phenyl)-5-methoxy-N^4-(5-methyl-1H-pyrazol-3-yl)-6-(1-methyl-1H-pyrazol-4-yl)pyrimidine-2,4-diamine]",220
10,Cc1cc(Nc2nc(N(C)c3c(F)cc(C#N)cc3F)nc(-c3cn(C)cn3)c2C2CC2)n[nH]1 [Compound 339],24
11,Cc1cc(Nc2nc(N(C)c3c(F)cc(S(C)(=O)=O)cc3F)nc(-c3cc4[nH]c(=O)ccn4n3)c2C2CC2)n[nH]1 [Compound 286],24
12,CC(=O)N1CCn2cc(-c3nc(N(C)c4c(F)cc(S(C)(=O)=O)cc4F)nc(Nc4cc(C)[nH]n4)c3C3CC3)nc2C1 [Compound 212],53
13,COc1c(Nc2cc(C)[nH]n2)nc(N(C)c2ccc(C(C)(C)C#N)cc2)nc1-c1cnn(C)c1 [Compound 61],100
14,COc1cc(F)c(N(C)c2nc(Nc3cc(C)[nH]n3)c(C3CC3)c(-c3cn(C)cn3)n2)c(F)c1 [Compound 338],77
15,Cc1cc(Nc2nc(N(C)c3ccc(S(C)(=O)=O)cc3F)nc(-c3ncc(C)s3)c2C2CC2)n[nH]1 [Compound 44],240
16,Cc1cc(Nc2nc(N(C)c3c(F)cc(S(C)(=O)=O)cc3F)nc(-c3cnn([C@H]4C[C@@H](O)C4)c3)c2C2CC2)n[nH]1 [Compound 254],4
17,Cc1cc(Nc2nc(N(C)c3c(F)cc(S(C)(=O)=O)cc3F)nc(-c3cn(C)c(C(F)F)n3)c2C2CC2)n[nH]1 [Compound 165],4
18,Cc1cc(Nc2nc(N(C)c3c(F)cc(S(C)(=O)=O)cc3F)nc(N3CCc4ncn(C)c4C3)c2C2CC2)n[nH]1 [Compound 282],6
19,Cc1cc(Nc2nc(N(C)c3c(F)cc(S(C)(=O)=O)cc3F)nc(-c3cn4c(n3)CNCC4)c2C2CC2)n[nH]1 [Compound 211],40
20,Cc1cc(Nc2nc(N(C)c3c(F)cc(S(C)(=O)=O)cc3F)nc(-c3cnn(C4CC4)c3)c2C2CC2)n[nH]1 [Compound 126],5
21,COc1c(Nc2cc(C)[nH]n2)nc(N(CC(=O)O)c2ccc(S(C)(=O)=O)cc2F)nc1-c1cnn(C)c1 [Compound 91],5400
22,Cc1cc(Nc2nc(N(C)c3c(F)cc(S(C)(=O)=O)cc3F)nc(-c3cnn4ccncc34)c2C2CC2)n[nH]1 [Compound 288],22
23,COc1c(Nc2cc(C)[nH]n2)nc(N(C)c2ccc3c(c2)CCS3(=O)=O)nc1-c1cnn(C)c1 [Compound 68],1000
24,Cc1cc(Nc2nc(Nc3c(F)cc(S(C)(=O)=O)cc3F)nc(-c3cn(C)cn3)c2C2CC2)n[nH]1 [Compound 189],150
25,Cc1cc(Nc2nc(N(C)c3c(F)cc(S(C)(=O)=O)cc3F)nc(-c3nccn3C)c2C2CC2)n[nH]1 [Compound 142],13
26,Cc1cc(Nc2nc(N(C)c3c(F)cc(S(C)(=O)=O)cc3F)nc(-c3cnn(CCO)c3)c2C2CC2)n[nH]1 [Compound 141],9
27,COCCn1ccc(-c2nc(N(C)c3c(F)cc(S(C)(=O)=O)cc3F)nc(Nc3cc(C)[nH]n3)c2C2CC2)n1 [Compound 150],15
28,"COc1c(-c2cnn(C)c2)cc(Sc2ccc(S(C)(=O)=O)cc2F)nc1Nc1cc(C)[nH]n1 [Compound 21, 6-((2-fluoro-4-(methylsulfonyl)phenyl)thio)-3-methoxy-N-(5-methyl-1H-pyrazol-3-yl)-4-(1-methyl-1H-pyrazol-4-yl)pyridin-2-amine]",53
29,Cc1cc(Nc2nc(N(C)c3c(F)cc(S(C)(=O)=O)cc3F)nc(-c3cnn(C4CS(=O)(=O)C4)c3)c2C2CC2)n[nH]1 [Compound 186],17
30,COCCn1cc(-c2nc(N(C)c3c(F)cc(S(C)(=O)=O)cc3F)nc(Nc3cc(C)[nH]n3)c2C2CC2)nc1C [Compound 188],8
